Earlier results, collected in patent publication US9227958B2, “Amorphous and crystalline forms of aprepitant and processes for the preparation thereof” (Glenmark Pharmaceuticals Limited, priority 2006, dated 2016).

How the values were obtained:
Settings in all cases: stated in words, background
[1] = target: human substance P/neurokinin 1 (NK1) receptors (Homo sapiens, UniProt P25103)
[2] = target: T1, serotonin (5-HT3) receptors (Homo sapiens, UniProt P46098)
T1 sequence (P46098 24-478): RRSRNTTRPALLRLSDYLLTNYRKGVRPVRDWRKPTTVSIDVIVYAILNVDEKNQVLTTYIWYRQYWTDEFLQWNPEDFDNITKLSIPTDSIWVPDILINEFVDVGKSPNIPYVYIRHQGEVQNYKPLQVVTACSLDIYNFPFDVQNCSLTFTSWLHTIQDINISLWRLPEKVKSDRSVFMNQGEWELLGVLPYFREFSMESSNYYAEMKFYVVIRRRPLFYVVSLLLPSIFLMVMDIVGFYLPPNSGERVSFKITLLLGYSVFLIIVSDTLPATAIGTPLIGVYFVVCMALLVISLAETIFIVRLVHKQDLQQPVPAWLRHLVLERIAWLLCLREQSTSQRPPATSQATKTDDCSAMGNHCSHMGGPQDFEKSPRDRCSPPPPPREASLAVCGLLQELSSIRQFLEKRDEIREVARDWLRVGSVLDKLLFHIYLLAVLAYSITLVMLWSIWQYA

[3] = system: dopamine receptors
[4] = system: corticosteroid receptors

Chain of human substance P/neurokinin 1 (NK1) receptors (P25103 whole entry): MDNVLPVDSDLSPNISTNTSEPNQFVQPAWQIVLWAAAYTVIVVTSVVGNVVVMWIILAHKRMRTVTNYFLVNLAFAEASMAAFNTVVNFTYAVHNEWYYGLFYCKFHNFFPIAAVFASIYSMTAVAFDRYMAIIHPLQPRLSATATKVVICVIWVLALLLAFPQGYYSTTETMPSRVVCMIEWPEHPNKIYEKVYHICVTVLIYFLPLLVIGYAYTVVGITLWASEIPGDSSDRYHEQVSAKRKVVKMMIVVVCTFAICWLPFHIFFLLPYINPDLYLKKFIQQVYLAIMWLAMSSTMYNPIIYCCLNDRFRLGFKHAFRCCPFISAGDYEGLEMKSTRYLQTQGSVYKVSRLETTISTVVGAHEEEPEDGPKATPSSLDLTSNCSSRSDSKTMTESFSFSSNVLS

C[C@@H](O[C@H]1OCCN(Cc2n[nH]c(=O)[nH]2)[C@H]1c1ccc(F)cc1)c1cc(C(F)(F)F)cc(C(F)(F)F)c1 [Aprepitant]
affinity / antagonism at human substance P/neurokinin 1 (NK1) receptors [1]: selective high-affinity antagonist
affinity for serotonin (5-HT3) receptors [2]: little or no affinity
affinity for dopamine receptors [3]: little or no affinity
affinity for corticosteroid receptors [4]: little or no affinity
